# Test results published in patent US8557763B2, “Synthetic peptides that enhance tight junction permeability” (Alba Therapeutics Corporation, priority 2007, dated 2013).
# Where no end group is shown, it is not given here. [ ]: non-standard residue; d: D form. AllylGly = C=CC[C@H](N)C(=O)O
# Tests used:
# CaCo2 monolayers [1] = experiment: Lucifer Yellow (LY) permeability assay through CaCo2 monolayers; format: cell-based; set-up: key to Enhanced LY permeability: + indicates an enhancement of the permeability of the tight junctions were observed; − indicates no enhancement of permeability was observed; conditions: for Enhanced LY permeability: CaCo2 monolayers, Lucifer Yellow flux
# Source text: (§1) Agonists of tight junctions can be identified by their ability to enhance the flux of compounds (e.g. ions, Lucifer Yellow) through a cell monolayer that comprises tight junctions; or by their ability to reduce TEER across a cell monolayer that comprises tight junctions. Treatment of CaCo2 monolayers with peptide FCIGRL (SEQ ID NO: 1) led to a 51-fold enhancement of Lucifer Yellow permeability through CaCo2 monolayers compared to vehicle alone.
# (§2) Tight junction agonists can be identified and tested using the following method:
# (§3) Determination of TEER and Lucifer Yellow Flux
# (§4) Prepare Modified Hank's Balanced Salt Solution (MHBSS) by obtaining 1 L bottle of HBSS removing 10 ml of HBSS and replacing it with 10 ml HEPES buffer pH 7.0. Adjust pH to 7.4±0.1 using concentrated NaOH (10N).
# (§5) Remove CaCo-2 cells from incubator, grown on 12-well, 3.0 μM, polycarbonate Transwell® filters (Corning) and record passage#, date cells seeded and age in days.
# (§6) Aspirate cell culture medium from both the apical (AP) and basolateral (BL) compartments, replacing with 0.5 ml and 1.5 ml of MHBSS, respectively. Incubate cells at 37° C. for 30 minutes.
# (§7) Aspirate solution from the apical compartment of each filter (n=3 per condition) and replace with 0.5 ml of control and test solutions containing Lucifer Yellow and test compound if appropriate.
# (§8) Place all plates into incubator set at 37° C. (±0.2), 50 RPM (±5) for a total of 180 minutes.
# At t=60, 120 and 180 minutes remove […] from each basolateral compartment and place it in a 96-well plate for Lucifer Yellow analysis, replace with 100 μl of MHBSS.
# Make a Lucifer Yellow standard curve with the following dilutions (7500 μM, 3750 μM, 750 μM, 375 μM, 37.5 μM, 7.5 μM, 3.75 μM, 0.75 μM) and pipette 100 μL of each into a 96-well plate except for the first three standards mentioned above which require a 1:10 dilutions prior to transferring to the 96-well plate.
# Harvest the remaining start solutions and what is left in each apical compartment into 1.5 ml vials. Freeze at −20° C. for future analysis.
# Analyze each 96-well plate in a Tecan Spectra Fluor Plus using Magellan at 485 and 535 nm.
# (§9) Cells: CaCo-2 cells passage 40-60 grown on Transwell® plates for 21-28 days
# (§10) Culture Medium: DMEM supplemented with 10% fetal bovine serum, 1% NEAA, 1% Penn/Strep
# (§11) Buffers: Hank's Balanced Salt Solution (HBSS) without calcium and magnesium
# (§12) Flasks: 100×20 mm Tissue culture dish Falcon.
# (§13) Plates: 12 well polycarbonate Transwell® filters; 0.3 uM pore size
# CaCo2 monolayers [2] = experiment: Trans Epithelial Electric Resistance (TEER) across CaCo2 monolayers; format: cell-based; set-up: key to Reduced TEER: + indicates an enhancement of the permeability of the tight junctions were observed; − indicates no enhancement of permeability was observed; conditions: for Reduced TEER: CaCo2 monolayers
# Source text: as §1
# Treatment of CaCo2 monolayers with peptide FCIGRL led to a 16-fold decrease in TEER across CaCo2 monolayers compared to vehicle alone.
# as §2, §3, §4, §5, §6
# Using the MilliCell®-ERS instrument (Millipore), measure and record the transepithelial electrical resistance (TEER) across each filter and record.
# as §7, §8
# At t=30, 60, 120 and 180 minutes, measure and record the transepithelial electrical resistance (TEER) across each filter using the MilliCell-ERS instrument.
# as §9, §10, §11, §12, §13
substance,measurement,setting,value
42 (F[AllylGly]IARL-NH2; N-terminus assumed; SMILES C=CC[C@H](NC(=O)[C@@H](N)Cc1ccccc1)C(=O)N[C@H](C(=O)N[C@@H](C)C(=O)N[C@@H](CCCNC(=N)N)C(=O)N[C@@H](CC(C)C)C(N)=O)[C@@H](C)CC) [compound 42],Enhanced LY permeability,CaCo2 monolayers [1],+
same,Reduced TEER,CaCo2 monolayers [2],+
79 (F[AllylGly]IGRQ-NH2; N-terminus assumed; SMILES C=CC[C@H](NC(=O)[C@@H](N)Cc1ccccc1)C(=O)N[C@H](C(=O)NCC(=O)N[C@@H](CCCNC(=N)N)C(=O)N[C@@H](CCC(N)=O)C(N)=O)[C@@H](C)CC) [compound 79],Enhanced LY permeability,CaCo2 monolayers [1],−
same,Reduced TEER,CaCo2 monolayers [2],−
26 (F[AllylGly]SGRL-NH2; N-terminus assumed; SMILES C=CC[C@H](NC(=O)[C@@H](N)Cc1ccccc1)C(=O)N[C@@H](CO)C(=O)NCC(=O)N[C@@H](CCCNC(=N)N)C(=O)N[C@@H](CC(C)C)C(N)=O) [compound 26],Enhanced LY permeability,CaCo2 monolayers [1],+
same,Reduced TEER,CaCo2 monolayers [2],+
7 (L[AllylGly]IGRL-NH2; N-terminus assumed; SMILES C=CC[C@H](NC(=O)[C@@H](N)CC(C)C)C(=O)N[C@H](C(=O)NCC(=O)N[C@@H](CCCNC(=N)N)C(=O)N[C@@H](CC(C)C)C(N)=O)[C@@H](C)CC) [compound 7],Enhanced LY permeability,CaCo2 monolayers [1],+
same,Reduced TEER,CaCo2 monolayers [2],−
30 (F[AllylGly]AGRL-NH2; N-terminus assumed; SMILES C=CC[C@H](NC(=O)[C@@H](N)Cc1ccccc1)C(=O)N[C@@H](C)C(=O)NCC(=O)N[C@@H](CCCNC(=N)N)C(=O)N[C@@H](CC(C)C)C(N)=O) [compound 30],Enhanced LY permeability,CaCo2 monolayers [1],+
same,Reduced TEER,CaCo2 monolayers [2],+
36 (F[AllylGly]KGRL-NH2; N-terminus assumed; SMILES C=CC[C@H](NC(=O)[C@@H](N)Cc1ccccc1)C(=O)N[C@@H](CCCCN)C(=O)NCC(=O)N[C@@H](CCCNC(=N)N)C(=O)N[C@@H](CC(C)C)C(N)=O) [compound 36],Enhanced LY permeability,CaCo2 monolayers [1],+
same,Reduced TEER,CaCo2 monolayers [2],+
22 (F[AllylGly]PGRL-NH2; N-terminus assumed; SMILES C=CC[C@H](NC(=O)[C@@H](N)Cc1ccccc1)C(=O)N1CCC[C@H]1C(=O)NCC(=O)N[C@@H](CCCNC(=N)N)C(=O)N[C@@H](CC(C)C)C(N)=O) [compound 22],Enhanced LY permeability,CaCo2 monolayers [1],−
same,Reduced TEER,CaCo2 monolayers [2],−
46 (F[AllylGly]IDRL-NH2; N-terminus assumed; SMILES C=CC[C@H](NC(=O)[C@@H](N)Cc1ccccc1)C(=O)N[C@H](C(=O)N[C@@H](CC(=O)O)C(=O)N[C@@H](CCCNC(=N)N)C(=O)N[C@@H](CC(C)C)C(N)=O)[C@@H](C)CC) [compound 46],Enhanced LY permeability,CaCo2 monolayers [1],+
same,Reduced TEER,CaCo2 monolayers [2],+
34 (F[AllylGly]QGRL-NH2; N-terminus assumed; SMILES C=CC[C@H](NC(=O)[C@@H](N)Cc1ccccc1)C(=O)N[C@@H](CCC(N)=O)C(=O)NCC(=O)N[C@@H](CCCNC(=N)N)C(=O)N[C@@H](CC(C)C)C(N)=O) [compound 34],Enhanced LY permeability,CaCo2 monolayers [1],+
same,Reduced TEER,CaCo2 monolayers [2],+
56 (F[AllylGly]IGDL-NH2; N-terminus assumed; SMILES C=CC[C@H](NC(=O)[C@@H](N)Cc1ccccc1)C(=O)N[C@H](C(=O)NCC(=O)N[C@@H](CC(=O)O)C(=O)N[C@@H](CC(C)C)C(N)=O)[C@@H](C)CC) [compound 56],Enhanced LY permeability,CaCo2 monolayers [1],+
same,Reduced TEER,CaCo2 monolayers [2],+
83 (F[AllylGly]IGRS-NH2; N-terminus assumed; SMILES C=CC[C@H](NC(=O)[C@@H](N)Cc1ccccc1)C(=O)N[C@H](C(=O)NCC(=O)N[C@@H](CCCNC(=N)N)C(=O)N[C@@H](CO)C(N)=O)[C@@H](C)CC) [compound 83],Enhanced LY permeability,CaCo2 monolayers [1],−
same,Reduced TEER,CaCo2 monolayers [2],−
19 (P[AllylGly]IGRL-NH2; N-terminus assumed; SMILES C=CC[C@H](NC(=O)[C@@H]1CCCN1)C(=O)N[C@H](C(=O)NCC(=O)N[C@@H](CCCNC(=N)N)C(=O)N[C@@H](CC(C)C)C(N)=O)[C@@H](C)CC) [compound 19],Enhanced LY permeability,CaCo2 monolayers [1],−
same,Reduced TEER,CaCo2 monolayers [2],−
37 (F[AllylGly]NGRL-NH2; N-terminus assumed; SMILES C=CC[C@H](NC(=O)[C@@H](N)Cc1ccccc1)C(=O)N[C@@H](CC(N)=O)C(=O)NCC(=O)N[C@@H](CCCNC(=N)N)C(=O)N[C@@H](CC(C)C)C(N)=O) [compound 37],Enhanced LY permeability,CaCo2 monolayers [1],+
same,Reduced TEER,CaCo2 monolayers [2],+
48 (F[AllylGly]IQRL-NH2; N-terminus assumed; SMILES C=CC[C@H](NC(=O)[C@@H](N)Cc1ccccc1)C(=O)N[C@H](C(=O)N[C@@H](CCC(N)=O)C(=O)N[C@@H](CCCNC(=N)N)C(=O)N[C@@H](CC(C)C)C(N)=O)[C@@H](C)CC) [compound 48],Enhanced LY permeability,CaCo2 monolayers [1],+
same,Reduced TEER,CaCo2 monolayers [2],+
53 (F[AllylGly]ISRL-NH2; N-terminus assumed; SMILES C=CC[C@H](NC(=O)[C@@H](N)Cc1ccccc1)C(=O)N[C@H](C(=O)N[C@@H](CO)C(=O)N[C@@H](CCCNC(=N)N)C(=O)N[C@@H](CC(C)C)C(N)=O)[C@@H](C)CC) [compound 53],Enhanced LY permeability,CaCo2 monolayers [1],+
same,Reduced TEER,CaCo2 monolayers [2],+
90 (F[AllylGly]IGRV-NH2; N-terminus assumed; SMILES C=CC[C@H](NC(=O)[C@@H](N)Cc1ccccc1)C(=O)N[C@H](C(=O)NCC(=O)N[C@@H](CCCNC(=N)N)C(=O)N[C@H](C(N)=O)C(C)C)[C@@H](C)CC) [compound 90],Enhanced LY permeability,CaCo2 monolayers [1],+
same,Reduced TEER,CaCo2 monolayers [2],+
82 (F[AllylGly]IGRY-NH2; N-terminus assumed; SMILES C=CC[C@H](NC(=O)[C@@H](N)Cc1ccccc1)C(=O)N[C@H](C(=O)NCC(=O)N[C@@H](CCCNC(=N)N)C(=O)N[C@@H](Cc1ccc(O)cc1)C(N)=O)[C@@H](C)CC) [compound 82],Enhanced LY permeability,CaCo2 monolayers [1],+
same,Reduced TEER,CaCo2 monolayers [2],+
33 (F[AllylGly]EGRL-NH2; N-terminus assumed; SMILES C=CC[C@H](NC(=O)[C@@H](N)Cc1ccccc1)C(=O)N[C@@H](CCC(=O)O)C(=O)NCC(=O)N[C@@H](CCCNC(=N)N)C(=O)N[C@@H](CC(C)C)C(N)=O) [compound 33],Enhanced LY permeability,CaCo2 monolayers [1],+
same,Reduced TEER,CaCo2 monolayers [2],+
89 (FXIGRP-NH2; not fully specified (residue 2); printed as Phe−Allylaly−Ile−Gly−Arg−Pro−NH2) [compound 89],Enhanced LY permeability,CaCo2 monolayers [1],−
same,Reduced TEER,CaCo2 monolayers [2],−
80 (F[AllylGly]IGRE-NH2; N-terminus assumed; SMILES C=CC[C@H](NC(=O)[C@@H](N)Cc1ccccc1)C(=O)N[C@H](C(=O)NCC(=O)N[C@@H](CCCNC(=N)N)C(=O)N[C@@H](CCC(=O)O)C(N)=O)[C@@H](C)CC) [compound 80],Enhanced LY permeability,CaCo2 monolayers [1],+
same,Reduced TEER,CaCo2 monolayers [2],+
77 (F[AllylGly]IGRA-NH2; N-terminus assumed; SMILES C=CC[C@H](NC(=O)[C@@H](N)Cc1ccccc1)C(=O)N[C@H](C(=O)NCC(=O)N[C@@H](CCCNC(=N)N)C(=O)N[C@@H](C)C(N)=O)[C@@H](C)CC) [compound 77],Enhanced LY permeability,CaCo2 monolayers [1],+
same,Reduced TEER,CaCo2 monolayers [2],−
47 (F[AllylGly]IERL-NH2; N-terminus assumed; SMILES C=CC[C@H](NC(=O)[C@@H](N)Cc1ccccc1)C(=O)N[C@H](C(=O)N[C@@H](CCC(=O)O)C(=O)N[C@@H](CCCNC(=N)N)C(=O)N[C@@H](CC(C)C)C(N)=O)[C@@H](C)CC) [compound 47],Enhanced LY permeability,CaCo2 monolayers [1],+
same,Reduced TEER,CaCo2 monolayers [2],+
"FCIGRL [SEQ ID NO: 1, Phe−Cys−Ile−Gly−Arg−Leu, reference compound]",enhancement of Lucifer Yellow permeability through CaCo2 monolayers,CaCo2 monolayers [1]; compared to vehicle alone,51 fold
same,decrease in TEER across CaCo2 monolayers,CaCo2 monolayers [2]; compared to vehicle alone,16 fold
24 (F[AllylGly]TGRL-NH2; N-terminus assumed; SMILES C=CC[C@H](NC(=O)[C@@H](N)Cc1ccccc1)C(=O)N[C@H](C(=O)NCC(=O)N[C@@H](CCCNC(=N)N)C(=O)N[C@@H](CC(C)C)C(N)=O)[C@@H](C)O) [compound 24],Enhanced LY permeability,CaCo2 monolayers [1],−
same,Reduced TEER,CaCo2 monolayers [2],−
1 (FCIGRL; Peptide tight junction agonist) [compound 1],Enhanced LY permeability,CaCo2 monolayers [1],+
same,Reduced TEER,CaCo2 monolayers [2],+
